Data: ChEMBL document CHEMBL1134005, “2-Arylindole-3-acetamides: FPP-competitive inhibitors of farnesyl protein transferase” (Bioorg Med Chem Lett, 2001)

Legend:
[1] = target: T1, Protein farnesyltransferase (Homo sapiens, UniProt P49354+P49356); test: Concentration required for the inhibitory activity against human Farnesyltransferase; assay type: protein-complex assay
[2] = target: T1, Protein farnesyltransferase; test: (§1) Inhibition of FPP incorporation into biotinylated K-Ras-derived peptide by human farnesyl transferase; assay type: functional
[3] = target: T1, Protein farnesyltransferase; test: (§2) Inhibition of FPP incorporation into biotinylated K-Ras-derived peptide by human farnesyl transferase with 5 nM ATP; assay type: functional
[4] = target: T1, Protein farnesyltransferase; test: as §2; assay type: functional; remark: listed apart in the source
[5] = target: T1, Protein farnesyltransferase; test: as §1; assay type: functional; remark: listed apart in the source
[6] = target: T1, Protein farnesyltransferase; test: as §2; assay type: functional; remark: listed apart in the source
[7] = target: T1, Protein farnesyltransferase; test: Inhibition of FPP incorporation into biotinylated K-Ras-derived peptide by human farnesyl transferase 5 nM ATP; assay type: functional
[8] = target: T1, Protein farnesyltransferase; test: as §1; assay type: functional; remark: listed apart in the source
[9] = target: T1, Protein farnesyltransferase; test: as §1; assay type: functional; remark: listed apart in the source
[10] = target: T1, Protein farnesyltransferase; test: as §1; assay type: functional; remark: listed apart in the source
[11] = target: T1, Protein farnesyltransferase; test: as §2; assay type: functional; remark: listed apart in the source
[12] = target: Geranylgeranyl transferase type I (Homo sapiens, UniProt P49354+P53609); test: Inhibitory activity against human Geranylgeranyl transferase type I; assay type: protein-complex assay
[13] = target: T1, Protein farnesyltransferase; test: Inhibition of K-Ras farnesylation in PSN-1 cells without GGT1; assay type: functional, cell-based
[14] = target: T1, Protein farnesyltransferase; test: Inhibition of K-Ras farnesylation in PSN-1 cells with 100 nM GGT1; assay type: functional, cell-based
[15] = target: T1, Protein farnesyltransferase; test: Inhibition of HDJ-2 farnesylation in PSN-1 cells; assay type: functional, cell-based
[16] = target: T1, Protein farnesyltransferase; test: Inhibition of HDJ-2 farnesylation in PSN-1 cells with 100 nM GGT1; assay type: functional, cell-based
[17] = target: T1, Protein farnesyltransferase; test: Inhibition of HDJ-2 farnesylation in PSN-1 cells at without GGT1; assay type: functional, cell-based

IC50 [1] [nM]	SMILES	other results
572	CC(C)N(Cc1ccncc1)C(=O)Cc1cn(Cc2ccccc2Br)c2ccccc12	
232	CC(C)N(Cc1cncnc1)C(=O)Cc1c(-c2ccccc2)[nH]c2ccccc12	
106	CCN(Cc1ccncc1)C(=O)Cc1c(-c2ccccc2)[nH]c2ccccc12	IC50 [2]: 4000 nM; IC50 [3]: 190 nM; IC50 [4]: 43 nM; IC50 [5]: 230 nM; IC50 [6]: 47 nM; IC50 [7]: 20 nM; IC50 [8]: 230 nM; IC50 [9]: 54 nM; IC50 [10]: 250 nM; IC50 [11]: 65 nM; IC50 [12]: > 20000 nM
2480	CC(C)CN(Cc1cccnc1)C(=O)Cc1c(-c2ccccc2)[nH]c2ccccc12	
1370	COc1ccccc1-c1[nH]c2ccccc2c1CC(=O)N(Cc1ccncc1)C(C)C	
77	CC[C@H](C)N(Cc1ccncc1)C(=O)Cc1c(-c2ccccc2)[nH]c2ccccc12	
400	CC(C)N(Cc1cnccn1)C(=O)Cc1c(-c2ccccc2)[nH]c2ccccc12	
31	Cc1ccccc1-c1[nH]c2ccccc2c1CC(=O)N(Cc1ccncc1)C(C)C	
11400	O=C(Cc1c(-c2ccccc2)[nH]c2ccccc12)N(Cc1cccnc1)C1CCCC1	
1500	CC(C)CN(Cc1ccccn1)C(=O)Cc1c(-c2ccccc2)[nH]c2ccccc12	
44	O=C(Cc1c(-c2ccccc2)[nH]c2ccccc12)N(Cc1cccnc1)C1CCC1	
2150	CC(C)N(Cc1ccncc1)C(=O)Cc1cn(Cc2cccc(Br)c2)c2ccccc12	
58	CC(C)N(Cc1cccnc1)C(=O)Cc1c(-c2ccccc2)[nH]c2ccccc12	
245	CC(C)N(Cc1ccnn1C)C(=O)Cc1c(-c2ccccc2)[nH]c2ccccc12	
527	CC(C)N(Cc1cnn(C)c1)C(=O)Cc1c(-c2ccccc2)[nH]c2ccccc12	
46	CC(C)N(Cc1ccncc1)C(=O)Cc1c(-c2ccccc2Cl)[nH]c2ccccc12	
380	CC(C#N)N(Cc1cccnc1)C(=O)Cc1c(-c2ccccc2)[nH]c2ccccc12 (stereo not given)	
3800	CCn1c(-c2ccccc2)c(CC(=O)N(Cc2ccncc2)C(C)C)c2ccccc21	
172	CC(C)N(Cc1ccncc1)C(=O)Cc1c(-c2cccc(Cl)c2)[nH]c2ccccc12	
14400	CC(C)N(Cc1ccncc1)C(=O)Cc1c(-c2ccc(Br)cc2)[nH]c2ccccc12	
41	CC(C)N(Cc1ccncc1)C(=O)Cc1c(-c2ccccc2)[nH]c2ccccc12	

IC50 [1] [nM]	SMILES	other results
1740	CC(C)N(Cc1ccncc1)C(=O)Cc1cn(Cc2ccc(Br)cc2)c2ccccc12	
684	CC(C)N(Cc1ccccn1)C(=O)Cc1c(-c2ccccc2)[nH]c2ccccc12	
568	CC(C)N(Cc1ccn(C)n1)C(=O)Cc1c(-c2ccccc2)[nH]c2ccccc12	
517	N#Cc1ccc(Cn2cncc2CN2CCN(C(=O)NC34CC5CC(CC(C5)C3)C4)CC2)cc1	IC50 [12]: 0.2 nM
15	CC(C)N(Cc1ccncc1)C(=O)Cc1c(-c2ccccc2)n(C)c2ccccc12	EC50 [13]: > 30000 nM; EC50 [14]: 1800 nM; EC50 [15]: 1330 nM; EC50 [16]: 1000 nM; EC50 [17]: 1980 nM
110	CC(C)N(Cc1ccoc1)C(=O)Cc1c(-c2ccccc2)[nH]c2ccccc12	
2730	O=C(Cc1c(-c2ccccc2)[nH]c2ccccc12)N(Cc1cccnc1)Cc1cccnc1	
4000	O=C(Cc1c(-c2ccccc2)[nH]c2ccccc12)N(Cc1ccncc1)C1CCCC1	
182	Cn1c(-c2ccccc2)c(CC(=O)N(CCC#N)C2CC2)c2ccccc21	
> 50000	CC(C)N(Cc1ccncc1)C(=O)Cc1c[nH]c2ccccc12	
160	O=C(Cc1c(-c2ccccc2)[nH]c2ccccc12)N(Cc1ccncc1)C1CCC1	
241	CC(C)N(Cc1ccco1)C(=O)Cc1c(-c2ccccc2)[nH]c2ccccc12	
123	N#CCCN(C(=O)Cc1c(-c2ccccc2)[nH]c2ccccc12)C1CC1	
> 50000	CCCCn1c(-c2ccccc2)c(CC(=O)N(Cc2ccncc2)C(C)C)c2ccccc21	
29900	CCCn1c(-c2ccccc2)c(CC(=O)N(Cc2ccncc2)C(C)C)c2ccccc21	
712	Cc1ccccc1-c1[nH]c2ccccc2c1CC(=O)N(CCC#N)C1CC1	
1630	N#CCCN(C(=O)Cc1c(-c2ccccc2Cl)[nH]c2ccccc12)C1CC1	
12	Cc1ccccc1-c1c(CC(=O)N(Cc2ccncc2)C(C)C)c2ccccc2n1C	EC50 [15]: 1060 nM
45	O=C(Cc1c(-c2ccccc2)[nH]c2ccccc12)N(Cc1cccnc1)C1CC1	
4590	CC[C@@H](C)N(Cc1ccncc1)C(=O)Cc1c(-c2ccccc2)[nH]c2ccccc12	
171	O=C(Cc1c(-c2ccccc2)[nH]c2ccccc12)N(Cc1ccncc1)C1CC1	
